This note sets out measurements from ChEMBL document CHEMBL1156105 (J Med Chem, 2009).

Activity calls are given as the source filed them. No cut-off for these calls is given here. Some results are limits rather than exact numbers.

Data set [1] can be described thus: Metabolic stability in 10% human plasma assessed as half life at pH 7.4 by RP-HPLC.
For data set [2], the system named is Plasma. Kind of data set: Metabolic stability in 50% human plasma assessed as aspirin release at pH 7.4 by RP-HPLC. Note: time not given here. In kind it is ADME, cell-free.
Data set [3] deals with Plasma. The data set can be described thus: Metabolic stability in 10% human plasma assessed as aspirin release at pH 7.4 by RP-HPLC. Note: time not given here. It counts as ADME, cell-free.
Data set [4] can be described thus: Metabolic stability in 50% human plasma assessed as half life at pH 7.4 by RP-HPLC.
The nature of data set [5]: Antiplatelets aggregatory activity in human platelets rich plasma assessed as inhibition of collagen-induced platelets aggregation by aggregometry. In kind it is functional, cell-free. Particulars: Platelet.
For data set [6], the system named is Platelet. The data set can be described thus: Antiplatelets aggregatory activity in human platelets rich plasma assessed as inhibition of ADP-induced platelets aggregation by aggregometry. It counts as functional, cell-free.
The subject of data set [7] is Platelet. Kind of data set: Antiplatelets aggregatory activity in washed human platelets assessed as inhibition of ADP-induced platelets aggregation by aggregometry in presence of glutathione and ODQ. In kind it is functional, cell-based.
Data set [8] has as its system Platelet. Kind of data set: Antiplatelets aggregatory activity in human platelets rich plasma assessed as inhibition of ADP-induced platelets aggregation by aggregometry in presence of […] ODQ. It counts as functional, cell-free.
In data set [9] the test system is Platelet. The data set can be described thus: Antiplatelets aggregatory activity in washed human platelets assessed as inhibition of ADP-induced platelets aggregation by aggregometry in presence of glutathione. In kind it is functional, cell-based.

What is called half-life is the time in which the quantity being followed falls by half. As to `COc1cccc(C(=O)O[C@@H]2CO[C@H]3[C@@H]2OC[C@@H]3OC(=O)c2ccccc2OC(C)=O)c1`, the values for the half-life in data set [1] and in [4] were 3.15 min and 0.85 min, respectively. Besides, the Activity worked out at 17% in the data set with Plasma [2] and 19% in the data set on Plasma [3].
The matching figures for `CC(=O)Oc1ccccc1C(=O)O[C@H]1CO[C@H]2[C@@H]1OC[C@H]2OC(=O)c1ccncc1`: 3.7 min, 0.33 min, 27% and 19%.
The matching figures for `CC(=O)Oc1ccccc1C(=O)O[C@H]1CO[C@H]2[C@@H]1OC[C@H]2OC(=O)c1cc(C)nc(Cl)c1`: 1.16 min, 1.16 min, 14% and 24%.
Turning to `CC(=O)Oc1ccccc1C(=O)O[C@H]1CO[C@H]2[C@@H]1OC[C@H]2OC(=O)c1ccccc1C`, the half-life stood at 2.1 min in data set [1] and 0.83 min in [4]. Also, the Activity in the data set with Plasma [2] came to 59%; in the data set on Plasma [3] it was 46%.
Taken in the same sequence, the figures for `CC(=O)Oc1ccccc1C(=O)O[C@H]1CO[C@H]2[C@@H]1OC[C@H]2OC(=O)c1cccc(C)c1` were 9.9 min, 1.22 min, 54% and 38%.
One may read the IC50 as the concentration needed to halve the response being measured. Regarding `CC(=O)Oc1ccccc1C(=O)O[C@H]1CO[C@H]2[C@@H]1OC[C@H]2OC(=O)c1ccccc1O`, in data set [5], the 50% inhibitory concentration (IC50) is 20.6 µM. Further, the half-life stood at 4.95 min in data set [1] and 1.14 min in data set [4]. Besides, the values for the Activity in the data set with Plasma [2] and in the data set on Plasma [3] were 85% and 72%, respectively. The inhibition result with Platelet [6] is “Active”.
In the case of `CCOc1cc(OCC)cc(C(=O)O[C@@H]2CO[C@H]3[C@@H]2OC[C@@H]3OC(=O)c2ccccc2OC(C)=O)c1`, the Activity in the data set with Plasma [2] was less than 0.5%. For the same molecule, in data set [4], the half-life was 1.7 min.
For the molecule `CC(=O)Oc1ccccc1C(=O)O[C@H]1CO[C@H]2[C@@H]1OC[C@H]2OC(=O)c1cnccc1Cl`, the half-life is 3.85 min in [1] and 1.93 min in [4]. Further, the figures for the Activity with Plasma [2] and in the data set with Plasma [3] were 17% and 18%, respectively.
With `CC(=O)Oc1ccccc1C(=O)O[C@H]1CO[C@H]2[C@@H]1OC[C@H]2OC(=O)C1CC1`, the half-life was determined as 1.93 min in [1] and 0.9 min in data set [4]. The Activity in the data set with Plasma [2] is reported as less than 0.5%; in the data set with Plasma [3], 2%.
With `CC(=O)Oc1ccccc1C(=O)O[C@@H]1CO[C@H]2[C@@H]1OC[C@@H]2O[N+](=O)[O-]` (racemic), the half-life in data set [1] came out at 1.3 min.
Take `CC(=O)Oc1ccccc1C(=O)O[C@H]1CO[C@H]2[C@@H]1OC[C@H]2OC(=O)c1ccccc1OC(=O)c1ccccc1`: the half-life came to 23.1 min in data set [1] and 4.33 min in data set [4]. Besides, the Activity was found to be 19% in the data set with Plasma [2] and 28% with Plasma [3].
For the molecule `CC(=O)Oc1ccccc1C(=O)O[C@H]1CO[C@H]2[C@@H]1OC[C@H]2OC(=O)c1cccc(CO[N+](=O)[O-])c1`, in [5], the IC50 was determined as 17.1 µM. The inhibition entry in the data set on Platelet [7] and with Platelet [8] was “inactive” in each case. Moreover, the half-life in data set [1] came to 2.6 min; in [4] it was 2.7 min. For the same molecule, the results for the Activity in the data set with Plasma [2] and in the data set with Plasma [3] were 55% and 51%, respectively. Further, the inhibition entry in the data set on Platelet [6] and in the data set on Platelet [9] was “Active” throughout.
For the molecule `CC(=O)Oc1ccccc1C(=O)O[C@H]1CO[C@H]2[C@@H]1OC[C@H]2O`, the half-life was determined as 3.3 min in data set [1] and 1.1 min in data set [4]. The Activity with Plasma [2] and with Plasma [3] was less than 0.5% throughout.
With `CC(=O)Oc1ccccc1C(=O)O[C@H]1CO[C@H]2[C@@H]1OC[C@H]2OC(=O)c1cccc(O)c1`, the results for the half-life in data set [1] and in [4] were 1.1 min and 0.9 min, respectively. Moreover, the Activity in the data set on Plasma [2] is 29%; with Plasma [3] it was 44%.
With `CC(=O)Oc1ccccc1C(=O)O[C@H]1CO[C@H]2[C@@H]1OC[C@H]2OC(=O)c1ccc(C#N)cc1`, the results for the half-life in data set [1] and in data set [4] were 5.33 min and 4.08 min, respectively. For the same molecule, the Activity is on record as less than 0.5% with Plasma [2] and 19% in the data set with Plasma [3].
`CC(=O)Oc1ccccc1C(=O)O[C@H]1CO[C@H]2[C@@H]1OC[C@H]2OC(=O)c1snnc1C`: the half-life in [1] was 3.85 min; in data set [4], 0.39 min. Besides, the Activity in the data set with Plasma [2] worked out at 31%; with Plasma [3], 32%.
Turning to `CC(=O)Oc1ccccc1C(=O)O[C@H]1CO[C@H]2[C@@H]1OC[C@H]2OC(=O)c1cccnc1`, the half-life in data set [1] came to 1.39 min; in data set [4], 0.37 min. Also, the Activity is reported as 32% with Plasma [2] and 41% in the data set with Plasma [3].
Turning to `CC(=O)Oc1ccccc1C(=O)O[C@H]1CO[C@H]2[C@@H]1OC[C@H]2OC(=O)CCO[N+](=O)[O-]`, the half-life in [1] came to 3.9 min; in [4], 1.3 min.
As for `CC(=O)Oc1ccccc1C(=O)O[C@H]1CO[C@H]2[C@@H]1OC[C@H]2OC(=O)c1ccccc1`, the half-life in data set [1] turned out to be 3.3 min; in [4], 0.64 min. In addition, the Activity is reported as 29% in the data set with Plasma [2] and 19% in the data set on Plasma [3].
Take `CC(=O)Oc1ccccc1C(=O)O[C@H]1CO[C@H]2[C@@H]1OC[C@H]2OC(=O)c1ccc([N+](=O)[O-])cc1`: the figures for the half-life in data set [1] and in data set [4] were 2.77 min and 1.36 min, respectively. Moreover, the Activity with Plasma [2] turned out to be 22%; in the data set on Plasma [3], 13%.
Take `COc1ccccc1C(=O)O[C@@H]1CO[C@H]2[C@@H]1OC[C@@H]2OC(=O)c1ccccc1OC(C)=O`: the values for the half-life in data set [1] and in data set [4] were 3.47 min and 0.99 min, respectively. For the same molecule, the Activity with Plasma [2] was 7%; in the data set with Plasma [3] it was 5%.
With `COc1ccc(C(=O)O[C@@H]2CO[C@H]3[C@@H]2OC[C@@H]3OC(=O)c2ccccc2OC(C)=O)cc1`, the half-life in data set [1] stood at 3.15 min; in data set [4], 1.1 min. The Activity with Plasma [2] turned out to be 4%; with Plasma [3] it was 2.6%.
With `CCC(=O)O[C@@H]1CO[C@H]2[C@@H]1OC[C@@H]2OC(=O)c1ccccc1OC(C)=O`, the figures for the half-life in data set [1] and in data set [4] were 3.65 min and 0.66 min, respectively. Further, the Activity with Plasma [2] is on record as 7%; with Plasma [3], 6.8%.
For `CC(=O)Oc1ccccc1C(=O)O[C@H]1CO[C@H]2[C@@H]1OC[C@H]2OC(=O)CO[N+](=O)[O-]`, the half-life in data set [1] amounted to 3.6 min; in data set [4], 0.9 min.
For `CC(=O)Oc1ccccc1C(=O)O[C@H]1CO[C@H]2[C@@H]1OC[C@H]2OC(=O)c1ccc(CO[N+](=O)[O-])cc1`, the IC50 in data set [5] was more than 300 µM. Also, the half-life in data set [1] came out at 6 min; in [4], 2.4 min. The Activity with Plasma [2] is on record as less than 1%; in the data set with Plasma [3], less than 5%.
Consider `CCCCC(=O)O[C@@H]1CO[C@H]2[C@@H]1OC[C@@H]2OC(=O)c1ccccc1OC(C)=O`, for which the half-life came out at 1.19 min in [1] and 0.7 min in data set [4]. Further, the Activity in the data set on Plasma [2] is listed as less than 0.5%.
As to `CC(=O)Oc1ccccc1C(=O)O[C@H]1CO[C@H]2[C@@H]1OC[C@H]2OC(=O)c1ccnn1C`, the half-life turned out to be 5.78 min in [1] and 3.85 min in data set [4]. In addition, the Activity in the data set with Plasma [2] is listed as 6%; in the data set with Plasma [3], 7%.
Consider `CC(=O)Oc1ccccc1C(=O)O[C@H]1CO[C@H]2[C@@H]1OC[C@H]2OC(=O)c1ccc(O)cc1`, for which the half-life in [1] and in data set [4] was 1.19 min in each case. The values for the Activity with Plasma [2] and in the data set with Plasma [3] were 0.5% and 1%, respectively.
Regarding `CC(=O)Oc1ccccc1C(=O)O[C@H]1CO[C@H]2[C@@H]1OC[C@H]2OC(=O)c1ccccc1CO[N+](=O)[O-]`, the IC50 in data set [5] was 90.3 µM. The half-life amounted to 2.7 min in [1] and 3.2 min in [4]. Also, the Activity was found to be 34% with Plasma [2] and 32% with Plasma [3].
`CC(=O)Oc1ccccc1C(=O)O[C@H]1CO[C@H]2[C@@H]1OC[C@H]2OC(=O)c1ccc(C)cc1`: the half-life in [1] came to 6.3 min; in data set [4] it was 2.17 min. Besides, the Activity in the data set on Plasma [2] is given as 14.7%; in the data set on Plasma [3], 16%.
Regarding `CC(=O)Oc1ccccc1C(=O)O` [ASPIRIN], in data set [5], the 50% inhibitory concentration (IC50) turned out to be 20.6 µM.
As for `CC(=O)Oc1ccccc1C(=O)O[C@H]1CO[C@H]2[C@@H]1OC[C@H]2OC(=O)c1ccc(-c2ccccc2)cc1`, the half-life in data set [1] and in data set [4] was more than 20 min each time. For the same molecule, the Activity with Plasma [2] and in the data set on Plasma [3] was less than 0.5% throughout.
Turning to `CC(=O)Oc1ccccc1C(=O)O[C@H]1CO[C@H]2[C@@H]1OC[C@H]2OC(C)=O`, the half-life in [1] amounted to 3.65 min; in data set [4] it was 0.57 min. In addition, the Activity came out at 1.3% in the data set on Plasma [2] and 1.2% in the data set on Plasma [3].
Take `CC(=O)Nc1cccc(C(=O)O[C@@H]2CO[C@H]3[C@@H]2OC[C@@H]3OC(=O)c2ccccc2OC(C)=O)c1`: the Activity with Plasma [2] was determined as 11%. Besides, the half-life in data set [4] was determined as 3.5 min.
